Experiments:
[1] = target: T1, Pseudomonas monteilii amino acid dehydrogenase DyGDH (WP_060477601.1), original pDyGDH, SEQ ID No. 2 (Pseudomonas promysalinigenes, UniProt A0ABY6AJQ3); assay: Kinetic parameter determination, original pDyGDH; type: biochemical; details: pH 7.4, 35° C.
T1 sequence (A0ABY6AJQ3 1-446): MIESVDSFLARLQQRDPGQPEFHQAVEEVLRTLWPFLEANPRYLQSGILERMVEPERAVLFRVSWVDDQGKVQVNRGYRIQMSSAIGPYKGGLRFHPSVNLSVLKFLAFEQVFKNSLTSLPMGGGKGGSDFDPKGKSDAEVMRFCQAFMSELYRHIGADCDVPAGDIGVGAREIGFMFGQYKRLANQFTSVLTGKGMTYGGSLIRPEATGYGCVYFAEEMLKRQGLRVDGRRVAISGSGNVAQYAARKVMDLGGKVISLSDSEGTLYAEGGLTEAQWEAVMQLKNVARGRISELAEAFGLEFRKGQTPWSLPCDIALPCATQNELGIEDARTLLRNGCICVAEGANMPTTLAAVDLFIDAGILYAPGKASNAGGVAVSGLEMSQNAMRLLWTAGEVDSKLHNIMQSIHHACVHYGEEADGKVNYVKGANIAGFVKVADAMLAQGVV
Description: The gene of the amino acid dehydrogenase cloned from Pseudomonas monteilii WP_060477601.1 (the nucleotide sequence is shown in SEQ ID No. 1, and the amino acid sequence is shown in SEQ ID No. 2) was used to construct the expression vector pETDEut-dygdh, then the obtained vector was transformed into E. coli to obtain the original strain E. coli BL21(DE3)/pETDEut-dygdh. […]
(§1) The reaction system was 500 μL, the pure enzyme solution collected in Example 4 was diluted 10 times with pH 7.4, 100 mM phosphate buffer, then 100 μL of the resulting solution was sampled, added with the substrate and exogenous coenzyme NADPH, pH 7.4, 100 mM phosphate buffer was taken as a reaction medium, after reacting at 35° C. and 600 rpm for 10 min, the concentration of L-glufosinate-ammonium in the reacting solution was determined by HPLC (according to Example 4).
(§2) According to the sequential mechanism of amino acid dehydrogenase's catalytic reaction, vmax, Km^A, Km^B can be calculated by dual-reciprocal graph, the results were shown in Table 4.

[2] = target: Pseudomonas monteilii amino acid dehydrogenase DyGDH variant pDyGDH-F95I-A108T-R172P-R303H (F95I/A108T/R172P/R303H of SEQ ID No. 2) (Pseudomonas promysalinigenes, UniProt A0ABY6AJQ3, A108T/F95I/R172P/R303H); assay: Kinetic parameter determination, pDyGDH-F95I-A108T-R172P-R303H; type: biochemical
Description: The gene of the amino acid dehydrogenase cloned from Pseudomonas monteilii WP_060477601.1 (the nucleotide sequence is shown in SEQ ID No. 1, and the amino acid sequence is shown in SEQ ID No. 2) was used to construct the expression vector pETDEut-dygdh, then the obtained vector was transformed into E. coli to obtain the original strain E. coli BL21(DE3)/pETDEut-dygdh.
The mutant proteins were purified by Ni-NTA column (1.6×10 cm, Bio-Rad, the USA), and the specific operation was carried out as follows: (1) a Ni column was equilibrated with 5 column volumes of binding buffer (pH 8.0, 50 mM sodium phosphate buffer containing 0.3 M NaCl) until the baseline was steady; (2) the sample was loaded with a flow rate of 1 mL/min, the amount of the loading sample was 25-40 mg/mL calculated by the volume of the column, thereby attaching the target protein to the Ni column; (3) the column was washed with 6 column volumes of buffer A (pH 8.0, 50 mM sodium phosphate buffer containing 0.3 M NaCl and 30 mM imidazole) at a flow rate of 1 mL/min until the baseline was steady; (4) the column was washed with buffer B (pH 8.0, 50 mM sodium phosphate buffer containing 0.3 M NaCl and 500 mM imidazole) at a flow rate of 1 mL/min, the target protein was collected and dialyzed overnight in a pH 7.5, 20 mM phosphate buffer, thereby obtaining the pure enzyme; and (5) the Ni column was washed with 5 column volumes of binding buffer (pH 8.0, 50 mM sodium phosphate buffer containing 0.3 M NaCl) until the baseline was steady, and the Ni column was stored in 5 column volumes of ultrapure water containing 20% ethanol.
Kinetic parameters of the amino acid hydrogenase and its mutants were examined, 2-carbonyl-4-(hydroxymethylphosphinyl)-butyric acid was taken as substrate, the concentration was set as 2-10 mM (2, 4, 6, 8, 10 mM), the concentration of exogenous coenzyme NADPH was set as 1-5 mM (1, 2, 3, 4, 5 mM), 100 uL of pure enzyme solution was added (according to Example 4).
as §1, §2

| SMILES | kcat/Km^B (2-carbonyl-4-(hydroxymethylphosphinyl)-butyric acid) [1] [M⁻¹ s⁻¹] | kcat/Km^B (2-carbonyl-4-(hydroxymethylphosphinyl)-butyric acid) ([2]; pH 7.4, 35° C.) [M⁻¹ s⁻¹] | catalytic efficiency kcat/Km^B on 2-carbonyl-4-(hydroxymethylphosphinyl)-butyric acid, times higher than that of the original enzyme ([2]; versus original pDyGDH) [times] | kcat/Km^A (NADPH) [1] [M⁻¹ s⁻¹] | kcat/Km^A (NADPH) ([2]; pH 7.4, 35° C.) [M⁻¹ s⁻¹] | catalytic efficiency on coenzyme NADPH, times higher than that of the original enzyme ([2]; versus original pDyGDH) [times] |
| --- | --- | --- | --- | --- | --- | --- |
| CP(=O)(O)CCC(=O)C(=O)O [2-carbonyl-4-(hydroxymethylphosphinyl)-butyric acid] | 12410 | 363100 | 29.3 |  |  |  |
| NC(=O)C1=CN([C@@H]2O[C@H](COP(=O)(O)OP(=O)(O)OC[C@H]3O[C@@H](n4cnc5c(N)ncnc54)[C@H](OP(=O)(O)O)[C@@H]3O)[C@@H](O)[C@H]2O)C=CC1 [NADPH] |  |  |  | 385670 | 1.43823e+07 | 37.3 |

Source: patent US11408016B2, “Amino acid dehydrogenase mutant and application in synthesis of L-glufosinate-ammonium thereof” (ZHEJIANG UNIVERSITY OF TECHNOLOGY, priority 2018, dated 2022)
